Results reported in patent publication US20230257396A1, “MACROCYCLES AND THEIR USE” (BLOSSOMHILL THERAPEUTICS, INC., priority 2020, published 2023).
Residue numbers refer to the chain shown, from its start.

Experiments:
Assay in all cases: KINOMEscan kinase binding assay (Eurofins/DiscoveRx), % Ctrl
[1] = biological target: T1, kinases (Homo sapiens, UniProt P00533, G719S)
T1 construct: purchased Eurofins/DiscoveRx; host or cells: E. coli BL21-derived host (T7 phage display) for most kinases; HEK-293 for the rest
Procedure, shortened: (§1)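 Read-out is qPCR of kinase eluted from ligand-coated streptavidin beads after 1 h room-temperature competition with test compound. Values are % Ctrl at the tested concentration, lower meaning tighter binding.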

[2] = biological target: T2, kinases (Homo sapiens, UniProt P00519, E255K)
T2 construct: purchased Eurofins/DiscoveRx; host or cells: E. coli BL21-derived host (T7 phage display) for most kinases; HEK-293 for the rest
Procedure, shortened: as §1

[3] = biological target: T3, kinases (Homo sapiens, UniProt P36888, D835V)
T3 construct: purchased Eurofins/DiscoveRx; host or cells: E. coli BL21-derived host (T7 phage display) for most kinases; HEK-293 for the rest
T3 sequence (P36888 27-993 D835V): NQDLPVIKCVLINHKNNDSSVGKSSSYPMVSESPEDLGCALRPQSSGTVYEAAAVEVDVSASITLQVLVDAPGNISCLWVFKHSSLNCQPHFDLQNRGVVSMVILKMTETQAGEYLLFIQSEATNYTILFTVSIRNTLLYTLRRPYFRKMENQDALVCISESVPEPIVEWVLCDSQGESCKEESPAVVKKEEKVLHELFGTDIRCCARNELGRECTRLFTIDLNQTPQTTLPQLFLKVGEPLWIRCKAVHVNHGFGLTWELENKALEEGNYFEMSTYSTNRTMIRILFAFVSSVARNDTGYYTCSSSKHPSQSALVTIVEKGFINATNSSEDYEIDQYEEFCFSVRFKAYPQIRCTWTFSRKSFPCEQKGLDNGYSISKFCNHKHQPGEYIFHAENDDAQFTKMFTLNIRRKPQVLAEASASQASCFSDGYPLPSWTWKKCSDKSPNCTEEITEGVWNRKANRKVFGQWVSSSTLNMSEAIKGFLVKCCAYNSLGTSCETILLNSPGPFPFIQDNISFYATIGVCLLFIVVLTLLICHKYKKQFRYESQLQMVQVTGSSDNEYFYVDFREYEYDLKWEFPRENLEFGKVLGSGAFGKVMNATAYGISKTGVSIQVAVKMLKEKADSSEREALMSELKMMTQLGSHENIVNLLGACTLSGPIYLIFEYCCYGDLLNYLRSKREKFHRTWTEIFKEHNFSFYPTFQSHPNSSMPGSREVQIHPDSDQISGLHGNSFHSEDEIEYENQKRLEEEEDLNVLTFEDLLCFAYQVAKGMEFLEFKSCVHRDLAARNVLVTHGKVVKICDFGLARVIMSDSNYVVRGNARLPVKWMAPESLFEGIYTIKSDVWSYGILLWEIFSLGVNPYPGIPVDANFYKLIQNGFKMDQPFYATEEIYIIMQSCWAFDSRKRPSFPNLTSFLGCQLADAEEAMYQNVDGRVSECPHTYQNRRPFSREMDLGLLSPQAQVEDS
Procedure, shortened: as §1

[4] = biological target: T4, kinases (Homo sapiens, UniProt P36888, D835H)
T4 construct: purchased Eurofins/DiscoveRx; host or cells: E. coli BL21-derived host (T7 phage display) for most kinases; HEK-293 for the rest
T4 sequence (P36888 27-993 D835H): T3 sequence (P36888 27-993 D835V) with V809H
Procedure, shortened: as §1

[5] = biological target: T5, kinases (Homo sapiens, UniProt P00519, F317L)
T5 construct: purchased Eurofins/DiscoveRx; host or cells: E. coli BL21-derived host (T7 phage display) for most kinases; HEK-293 for the rest
Procedure, shortened: as §1

[6] = biological target: T6, kinases (Homo sapiens, UniProt P10721, D816H)
T6 construct: purchased Eurofins/DiscoveRx; host or cells: E. coli BL21-derived host (T7 phage display) for most kinases; HEK-293 for the rest
Procedure, shortened: as §1

[7] = target ABL1(E255K)-phosphorylated; 1 μM
[8] = target ABL1(F317L)-nonphosphorylated; 1 μM
[9] = target ABL1(F317L)-phosphorylated; 1 μM
[10] = 1 μM; ABL1(E255K)-phosphorylated
[11] = 1 μM; ABL1(F317L)-nonphosphorylated
[12] = 1 μM; ABL1(F317L)-phosphorylated

T5 sequence (P00519 whole entry F317L): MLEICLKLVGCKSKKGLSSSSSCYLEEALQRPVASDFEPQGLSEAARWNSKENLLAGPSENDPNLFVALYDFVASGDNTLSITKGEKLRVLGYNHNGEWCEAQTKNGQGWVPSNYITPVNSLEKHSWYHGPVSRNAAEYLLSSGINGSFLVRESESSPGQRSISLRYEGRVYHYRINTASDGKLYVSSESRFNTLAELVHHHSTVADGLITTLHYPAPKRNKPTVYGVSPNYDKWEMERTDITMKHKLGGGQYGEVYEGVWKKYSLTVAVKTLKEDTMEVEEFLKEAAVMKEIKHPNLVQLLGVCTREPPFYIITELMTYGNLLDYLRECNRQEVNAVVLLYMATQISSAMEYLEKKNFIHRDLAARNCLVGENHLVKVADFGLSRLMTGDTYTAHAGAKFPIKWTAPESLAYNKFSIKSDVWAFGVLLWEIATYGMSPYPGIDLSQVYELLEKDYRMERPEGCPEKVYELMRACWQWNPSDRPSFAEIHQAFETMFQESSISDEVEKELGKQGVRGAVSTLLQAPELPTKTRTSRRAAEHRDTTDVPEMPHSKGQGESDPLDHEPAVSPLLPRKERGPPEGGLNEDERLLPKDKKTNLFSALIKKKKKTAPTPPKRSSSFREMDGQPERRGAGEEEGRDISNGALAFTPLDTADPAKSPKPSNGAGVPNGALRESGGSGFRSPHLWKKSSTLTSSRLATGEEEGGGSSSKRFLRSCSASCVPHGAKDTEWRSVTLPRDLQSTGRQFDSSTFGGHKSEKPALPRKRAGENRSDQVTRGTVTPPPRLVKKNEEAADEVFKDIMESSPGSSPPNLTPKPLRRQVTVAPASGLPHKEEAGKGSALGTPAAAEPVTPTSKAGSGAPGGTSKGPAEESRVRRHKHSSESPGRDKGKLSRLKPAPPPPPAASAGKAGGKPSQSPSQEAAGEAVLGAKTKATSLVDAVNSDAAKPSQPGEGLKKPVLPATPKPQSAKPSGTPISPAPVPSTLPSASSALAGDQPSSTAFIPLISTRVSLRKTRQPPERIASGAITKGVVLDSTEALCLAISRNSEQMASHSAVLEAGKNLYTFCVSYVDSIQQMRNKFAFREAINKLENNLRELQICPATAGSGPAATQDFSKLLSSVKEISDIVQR
T2 sequence (P00519 whole entry E255K): as the sequence (P00519 whole entry F317L) above, with E255K, L317F counted along it
T6 sequence (P10721 26-976 D816H): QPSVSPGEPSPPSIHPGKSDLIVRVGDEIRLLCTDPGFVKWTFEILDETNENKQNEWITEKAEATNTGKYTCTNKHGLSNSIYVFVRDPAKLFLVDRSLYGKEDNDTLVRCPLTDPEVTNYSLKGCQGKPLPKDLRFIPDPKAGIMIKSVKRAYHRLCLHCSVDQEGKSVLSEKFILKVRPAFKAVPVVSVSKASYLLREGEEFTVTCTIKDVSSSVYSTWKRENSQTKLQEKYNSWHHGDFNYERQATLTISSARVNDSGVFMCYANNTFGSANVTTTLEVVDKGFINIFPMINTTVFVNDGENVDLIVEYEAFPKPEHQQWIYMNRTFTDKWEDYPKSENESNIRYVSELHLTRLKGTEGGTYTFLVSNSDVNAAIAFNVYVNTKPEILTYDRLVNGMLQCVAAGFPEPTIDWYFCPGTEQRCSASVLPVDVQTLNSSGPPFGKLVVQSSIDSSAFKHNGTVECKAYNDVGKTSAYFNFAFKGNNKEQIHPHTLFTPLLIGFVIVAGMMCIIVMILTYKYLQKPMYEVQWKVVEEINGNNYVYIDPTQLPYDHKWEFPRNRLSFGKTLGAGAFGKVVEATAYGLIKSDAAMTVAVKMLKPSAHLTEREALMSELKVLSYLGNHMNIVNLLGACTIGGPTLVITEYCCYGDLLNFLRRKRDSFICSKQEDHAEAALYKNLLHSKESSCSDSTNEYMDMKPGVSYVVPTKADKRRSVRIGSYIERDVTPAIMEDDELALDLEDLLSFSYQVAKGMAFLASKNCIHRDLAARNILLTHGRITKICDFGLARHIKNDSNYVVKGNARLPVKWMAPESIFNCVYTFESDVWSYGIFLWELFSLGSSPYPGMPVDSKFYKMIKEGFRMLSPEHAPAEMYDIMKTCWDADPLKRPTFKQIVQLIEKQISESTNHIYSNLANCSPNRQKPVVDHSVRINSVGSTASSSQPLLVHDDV

Row | % Ctrl, EGFR(G719S) ([1]; target EGFR(G719S); 1 μM) [% Ctrl] | % Ctrl, ABL1(E255K)-phosphorylated [2, 7] [% Ctrl] | % Ctrl, FLT3(D835V) ([3]; target FLT3(D835V); 1 μM) [% Ctrl] | % Ctrl, FLT3(D835H) ([4]; target FLT3(D835H); 1 μM) [% Ctrl] | % Ctrl, ABL1(F317L)-nonphosphorylated [5, 8] [% Ctrl] | % Ctrl, ABL1(F317L)-phosphorylated [5, 9] [% Ctrl] | % Ctrl, KIT(D816H) ([6]; target KIT(D816H); 1 μM) [% Ctrl] | % Ctrl, EGFR(G719S) ([1]; 1 μM; EGFR(G719S)) [% Ctrl] | % Ctrl, ABL1(E255K)-phosphorylated [2, 10] [% Ctrl] | % Ctrl, FLT3(D835V) ([3]; 1 μM; FLT3(D835V)) [% Ctrl] | % Ctrl, FLT3(D835H) ([4]; 1 μM; FLT3(D835H)) [% Ctrl] | % Ctrl, ABL1(F317L)-nonphosphorylated [5, 11] [% Ctrl] | % Ctrl, ABL1(F317L)-phosphorylated [5, 12] [% Ctrl] | % Ctrl, KIT(D816H) ([6]; 1 μM; KIT(D816H)) [% Ctrl] | SMILES | other results
1 | 45 | 8.4 | 0.3 | 0.3 | 4.3 | 18 | 27 | – | – | – | – | – | – | – | CN1CCSCCOc2cc3c(cc2Cl)NC(=O)/C3=C\c2[nH]ccc2C1=O [Ex. 153] | –
2 | – | – | – | – | – | – | – | – | – | – | – | – | – | – | Cc1cc2c([nH]1)/C=C1\C(=O)Nc3cnc(cc31)-c1cnn(C)c1CN(C)CCN(C)C2=O [Ex. 172, [3a(4)Z]-6,9,12,14-tetramethyl-9,10,11,12,13,14-hexahydro-17,1-(azenometheno)pyrazolo[4,3-m]dipyrrolo[3,2-f:3′,4′-i][1,4]diazacyclopentadecine-3,8(2H,5H)-dione] | % Ctrl, EGFR(G719S) ([1]; 1 μM; target EGFR(G719S)): 82 % Ctrl; % Ctrl, ABL1(E255K)-phosphorylated ([2]; 1 μM; target ABL1(E255K)-phosphorylated): 0.4 % Ctrl; % Ctrl, FLT3(D835V) ([3]; 1 μM; target FLT3(D835V)): 0.5 % Ctrl; % Ctrl, FLT3(D835H) ([4]; 1 μM; target FLT3(D835H)): 4.2 % Ctrl; % Ctrl, ABL1(F317L)-nonphosphorylated ([5]; 1 μM; target ABL1(F317L)-nonphosphorylated): 7.1 % Ctrl; % Ctrl, ABL1(F317L)-phosphorylated ([5]; 1 μM; target ABL1(F317L)-phosphorylated): 1.9 % Ctrl; % Ctrl, KIT(D816H) ([6]; 1 μM; target KIT(D816H)): 6.4 % Ctrl
3 | 84 | 57 | 0.2 | 5.7 | 89 | 89 | 100 | – | – | – | – | – | – | – | Cc1cc2c([nH]1)/C=C1\C(=O)Nc3ccc(cc31)-c1c(C)nn(C)c1COCCN(C)C2=O [Ex. 146, [3a(4)Z]-6,9,14,16-tetramethyl-10,11,13,14-tetrahydro-2H-1,17-(ethanediylidene)pyrazolo[4,3-m]dipyrrolo[3,2-f:3′,4′-i][1,4]oxazacyclopentadecine-3,8(5H,9H)-dione] | –
4 | – | – | – | – | – | – | – | 97 | 25 | 1.7 | 23 | 85 | 58 | 87 | Cc1cc2c([nH]1)/C=C1\C(=O)Nc3ccc(cc31)-c1c(noc1C)COCCN(C)C2=O [Ex. 128, [3a(4)Z]-6,9,16-trimethyl-1,11-dihydro-2H,13H-1,17-(ethanediylidene)[1,4]oxazolo[4,3-m]dipyrrolo[3,2-f:3′,4′-i][1,4]oxazacyclopentadecine-3,8(5H,9H)-dione] | –
5 | – | – | – | – | – | – | – | 77 | 42 | 1.5 | 20 | 87 | 100 | 7 | Cc1cc2c([nH]1)/C=C1\C(=O)Nc3ccc(cc31)CN(C)C(=O)COCCNC2=O [Ex.111, [17a(18)Z]-2,11-dimethyl-6,7,11,12-tetrahydro-1H-13,15-(ethanediylidene)dipyrrolo[3,2-f:3′,4′-i][1,4,14]oxadiazacyclohexadecine-4,10,17(5H,9H,16H)-trione] | –
6 | – | – | – | – | – | – | – | 97 | 89 | 17 | 44 | 93 | 79 | 96 | Cc1cc2c([nH]1)/C=C1\C(=O)Nc3ccc(cc31)OCCOCCNC2=O [Ex. 129, [16a(17)Z]-2-methyl-6,7,9,10-tetrahydro-1H-12,14-(ethanediylidene)dipyrrolo[3,2-i:3′,4′-l][1,4,7]dioxazacyclopentadecine-4,16(5H,15H)-dione] | –
